Assay type in all cases: cell-based
For assay [1], the system named is A2780wt cells. The assay is described as follows: Annexin V/PI staining and FACS analysis, A2780wt. Particulars: w/o BGs, 25 µM, 24 h; for late apoptosis/ necrosis: Annexin V positive/PI positive; for early apoptosis: percentage of cells (Annexin V positive/PI negative). The method, then:
(§1) Therefore, we aimed to evaluate the apoptosis and necrosis inducing potential of complexes 1–4 via a fluorescent‐activated cell sorting (FACS) analysis with Annexin V/propidium iodide (PI) staining in A2780wt and A2780cis cells. Cells were treated for 24 h with both the free and BG‐loaded forms of each compound at 25 µM. Carboplatin (50 µM) served as a reference.
(§2) To evaluate the mode of cell death, a FACS measurement after staining with Annexin V and PI was conducted. First, 0.3 × 10^6 A2780wt or A2780cis cells were seeded into 12‐well plates and were allowed to adhere for 24 h. The compounds were added at 25 µM, either diluted from a freshly prepared DMF stock solution (0.1% DMF) or freshly thawed when loaded in BGs. After 24 h of incubation, the cells were harvested with accutase and washed with PBS. The cells were then resuspended in 200 µL of PBS each and 1 µL of PI solution (Sigma‐Aldrich, Taufkirchen, Germany) and 1 µL of Annexin V‐FITC (MabTag GmbH, Friesoythe, Germany) were added to each sample. These were then incubated for 20 min at rt under light‐protected conditions and afterward transferred onto ice. The percentage of apoptotic cells was determined by analyzing Annexin V positive /PI negative cells using a BD LSRFortessa flow cytometer and BD FACSDiva software (both BD Biosciences, San Jose, CA, USA). The apoptosis analysis included the evaluation of early apoptosis (Annexin V positive/PI negative) and late apoptosis/necrosis (Annexin V positive /PI positive).

The subject of assay [2] is A2780wt cells. The assay is described as follows: Cellular platinum accumulation (HR CS AAS). To be noted: free complex, 25 µM, 24 h. The procedure: Stock solutions of the platinum complexes in DMF were freshly prepared and the stocks for the loaded compounds were freshly thawed. […] Cell pellets were prepared by removing the medium, washing twice with PBS, and detaching the cells with accutase (GE Healthcare, Chicago, IL, USA). Subsequently, cells were pelleted by centrifugation (4°C, 380g, 3 min). Each pellet was twice washed with PBS and then stored at −20°C until further analyses.
Cellular accumulation was quantified by measuring the total platinum content using HR CS AAS. […] The resulting lysates were analyzed using AAS at the wavelength λ = 265.9450 nm with a high resolution continuous source (HR CS) spectrometer (contrAA 700; Analytik Jena, Jena, Germany). The ASpect CS software (version 2.3.1.0; Analytik Jena, Jena, Germany) was used to handle the spectrometer. The graphite furnace (GF) sub‐technique was used for this. In the latter, atomization takes place electrothermally in pyrolytically coated graphite tubes bearing an integrated platform (Analytik Jena, Jena, Germany). The GF program is outlined in Supporting Information S2: Table S8. The samples stored in polystyrene vials (0.5 mL; Gesellschaft für Analysentechnik, Salzwedel, Germany) were injected onto this platform employing an MPE 60 autosampler (Analytik Jena, Jena, Germany). As the purge and the protective gas served argon (Alphagaz 1, 99.999%, Air Liquide, Düsseldorf, Germany). The mean integrated absorbance of three injections was adduced during all measurements. […] As the degree of cellular accumulation is indicated as amount of compound (pmol) in the cell lysate relative to its protein mass (mg), the protein content of each sample was determined. Therefore, the method described by Bradford was used. […] Each 20 µL of either albumin standards or the cell lysates were pipetted into a 96‐well plate (Sarstedt, Nürmbrecht, Germany), followed by adding 200 µL of Bradford's reagent (Roti‐Nanoquant, Carl Roth, Karlsruhe, Germany; diluted 1:5 with ultrapure water). After incubating (5 min, rt), the absorbance (λ = 595 nm) was read with a microplate reader (Tecan Infinite M 1000 Pro, Männedorf, Switzerland). All calibration standards and lysates were measured in duplicates.

Another assay has as its system HS‐5 cells. The assay is described as follows: MTT assay, HS‐5 cells. To be noted: 72 h exposure, nonmalignant bone marrow stromal cells. The procedure: Carboplatin, a second‐generation platinum drug commonly used as part of standard first‐line chemotherapy for ovarian carcinoma, was examined as a reference compound due to its clinical relevance. Additionally, the nonmalignant bone marrow stromal cell line HS‐5 was included as a control to assess specificity of the complexes toward cancer cells.
The exponentially growing cells were seeded at a density of 8 × 10^3 cells/well (A2780wt/cis) or 1 × 10^4 cells/well (HS‐5), respectively, into clear flat‐bottom 96‐well plates in triplicates. Following 24 h of incubation for the adherence of the cells at 37°C in a humidified atmosphere (5% CO2/95% air), the test compounds were added. […] For the evaluation of the cell growth inhibition by the compounds loaded in BGs, the BG suspensions were directly diluted in RPMI 1640 to the desired testing concentration (25 µM). After another 72 h of incubation, the cellular metabolic activity was measured as an indicator of cell viability employing an MTT assay. Hereby, 20 µL of a 5 mg/mL MTT solution was added to each well, respectively. After 3 h of incubation, the medium was discarded, and the formazan crystals formed were dissolved in DMSO for 15 min with gentle shaking. Afterward, the optical density (OD) was measured at 595 and 620 nm, respectively on an EnSpire Multimode Plate Reader (revvity, Waltham, MA, USA). The OD at 620 nm was subtracted from the OD at 595 nm. The OD of the medium was subtracted to exclude the unspecific staining caused by FCS‐containing medium. Cells treated with vehicle control (0.1% DMF) only were set at 100% metabolic activity. The IC50 values were calculated with Prism 8.0 (GraphPad Software Inc., Boston, MA, USA) using nonlinear regression. Significance was evaluated via a one sample t‐test performed with Prism 8.0.
(In general: Tetrazolium assays rely on reduction of a dye to a coloured formazan, in cell work by metabolically active cells.)

The test system of another assay is A2780cis cells. The assay is described as follows: Annexin V/PI staining and FACS analysis, A2780cis. Particulars: w/o BGs, 25 µM, 24 h; for late apoptosis/ necrosis: Annexin V positive/PI positive; for early apoptosis: percentage of cells (Annexin V positive/PI negative). The method, then: as §1, §2
On the technique in general: Flow cytometry measures light scatter and fluorescence of single cells or particles in a stream.

Assay [3] relates to surface calreticulin on A2780wt cells. Briefly: Immunofluorescent surface calreticulin staining, A2780wt. Particulars: w/o BGs, 25 µM, 24 h. The method, then: Oxaliplatin, a known metal‐based ICD inducer, was included for comparison.
A2780wt or A2780cis cells were seeded at a density of 1.2 × 10^5 on cover slips and allowed to adhere for 24 h. […] Subsequently, the cells were washed again three times with PBS and they were incubated after adding the secondary antibody (Alexa‐Fluor‐conjugated anti‐rabbit, 1:200), for 45 min at rt. Subsequently, the cells were washed again three times with PBS and they were mounted on slides with mounting medium. After letting them dry overnight, visualization was performed by spinning disk confocal microscopy. […] Acquired images were background subtracted, individual cells were manually segmented, and fluorescence intensity for the calreticulin staining was quantified with a FIJI software. Two repetitions of the experiment were performed, where at least 20 cells per condition were analyzed and the mean intensity of each sample was calculated, respectively.

The IC50 is the concentration that inhibits the measured activity by half. Higher therefore signals weaker potency.

Consider `CCN1[C]([Pt]([O]C(C)=O)([O]C(C)=O)[SH](C)(C)=O)N(CC)c2ccccc21` [Compound 1, (SP‐4‐2)‐Diacetato(1,3‐diethylbenzimidazol‐2‐ylidene)(dimethylsulfoxide)platinum(II)], for which the results for the late apoptosis/ necrosis in the assay on A2780wt cells [1] and with A2780cis cells were 29.1 ± 2.56 and 15.0 ± 1.65, respectively. Also, the early apoptosis in the assay on A2780wt cells [1] came out at 15.9 ± 1.55; in the assay on A2780cis cells, 21.3 ± 1.18. The “uptake into A2780wt cells (total cellular platinum content)” value (from here on “uptake into A2780wt cells”) in the assay with A2780wt cells [2] is recorded as 1.1 pmol/µg. Besides, the IC50 in the assay with HS‐5 cells was 64.3 ± 8.2 µM. Moreover, the “x‐fold intensity of surface calreticulin compared to untreated cells” value (shortened to “x‐fold intensity of surface calreticulin”) in assay [3] is 1.09 ± 0.00 x‐fold.

Take `CCN1[C]([Pt]([O]C(=O)C(Cl)Cl)([O]C(=O)C(Cl)Cl)[SH](C)(C)=O)N(CC)c2ccccc21` [Compound 3, (SP‐4‐2)‐Bis(dichloroacetato)(1,3‐diethylbenzimidazol‐2‐ylidene)(dimethylsulfoxide)platinum(II)]: in the assay with A2780wt cells [1], the late apoptosis/ necrosis came to 28.8 ± 2.50 and the early apoptosis worked out at 15.3 ± 1.17. Also, the “uptake into A2780wt cells” value in the assay with A2780wt cells [2] worked out at 1.17 pmol/µg. In addition, in the assay on HS‐5 cells, the IC50 is above 100 µM. In the assay on A2780cis cells, the late apoptosis/ necrosis came out at 10.6 ± 0.95 and the early apoptosis worked out at 11.4 ± 1.82. The “x‐fold intensity of surface calreticulin” value in assay [3] is given as 1.50 ± 0.17 x‐fold.

In the assay with A2780wt cells [1], “(SP‐4‐2)‐Bis(dichloroacetato)bis(1,3‐diethylbenzimidazol‐2‐ylidene)platinum(II) [Compound 4]” yielded a late apoptosis/ necrosis of 46.9 ± 3.01 and an early apoptosis of 13.2 ± 0.22. Moreover, in the assay on A2780wt cells [2], the “uptake into A2780wt cells” value came out at 1.87 pmol/µg. In the assay with HS‐5 cells, this compound returned an IC50 of 37 ± 1.36 µM. In the assay on A2780cis cells, this compound displayed a late apoptosis/ necrosis of 18.1 ± 1.46 and an early apoptosis of 22.9 ± 1.67. Further, the “x‐fold intensity of surface calreticulin” value in assay [3] was determined as 1.37 ± 0.24 x‐fold.

For “(SP‐4‐2)‐Diacetatobis(1,3‐diethylbenzimidazol‐2‐ylidene)platinum(II) [Compound 2]”, in the assay on A2780wt cells [1], the late apoptosis/ necrosis stood at 25.9 ± 5.70 and the early apoptosis is given as 9.37 ± 0.31. In the assay on A2780wt cells [2], the “uptake into A2780wt cells” value is reported as 0.82 pmol/µg. The compound further displayed an IC50 with HS‐5 cells above 50 µM. In the assay with A2780cis cells, the late apoptosis/ necrosis was found to be 10.0 ± 1.77 and the early apoptosis is given as 6.37 ± 1.17. The “x‐fold intensity of surface calreticulin” value in assay [3] was 1.07 ± 0.12 x‐fold.

The record behind these values is PMC12476087, “Loading of Dicarboxylatoplatinum(II)‐NHC Complexes in Bacterial Ghosts as an Advanced Development in Cancer Therapy” (Archiv Der Pharmazie, 2025).
